Experimental data from the NIST ThermoML archive (doi:10.1021/je900998f).
± gives the expanded uncertainty stated by the source.

Conditions: Liquid; for mass density / viscosity: 298.15 K; for mass density: 101.33 kPa, Vibrating tube method

Row | Compound | mass density [kg/m3] | viscosity [mPa·s] | viscosity (Capillary tube (Ostwald / Ubbelohde) method) [mPa·s] | vapor or sublimation pressure (351.44 K, Ebulliometric method (Recirculating still)) [kPa]
1 | CCOS(=O)(=O)[O-].CC[n+]1cccc(C)c1 [1-ethyl-3-methylpyridinium ethylsulfate] | 1222.26 ± 0.42 | 161.4 ± 8.4 |  | 
2 | CCO [ethanol] | 785.46 ± 0.12 |  | 1.082 ± 0.073 | 101.33 ± 0.1
